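Protocol summary: plate cells (96-well), add compound at 5 concentrations, incubate 48 h, interpolate endpoints linearly. TGI: concentration producing complete growth inhibition.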
Legend:
Experiment in all cases: inhibition of tumour cell growth, NCI panel, 48 h
[1] = tested on: HCT-15 colon
[2] = tested on: IGROV1 ovarian
[3] = tested on: HOP-18 NSCLC
[4] = tested on: M19-MEL melanoma
[5] = tested on: SN12C renal
[6] = tested on: A549 NSCLC
[7] = tested on: SW-620 colon
[8] = tested on: M14 melanoma
[9] = tested on: UO-31 renal
[10] = tested on: HCT-116 colon
[11] = tested on: DMS 273 small cell lung
[12] = tested on: RPMI-8226 leukemia
[13] = tested on: HOP-62 NSCLC
[14] = tested on: SK-MEL-5 melanoma
[15] = tested on: HL-60(TB) leukemia
[16] = tested on: NCI-H23 lung
[17] = tested on: DMS 114 small cell lung
[18] = tested on: OVCAR-4 ovarian
[19] = tested on: HOP-92 NSCLC
[20] = tested on: OVCAR-5 ovarian
[21] = tested on: CCRF-CEM leukemia
[22] = tested on: OVCAR-8 ovarian
[23] = tested on: 786-0 renal
[24] = tested on: TK-10 renal
[25] = tested on: CAKI-1 renal
[26] = tested on: HCC-2998 colon
[27] = tested on: K-562 leukemia
[28] = tested on: SK-OV-3 ovarian
[29] = tested on: SK-MEL-28 melanoma
[30] = tested on: U251 CNS
[31] = tested on: SR leukemia
[32] = tested on: SF-295 CNS
[33] = tested on: LXFL 529 NSCLC
[34] = tested on: NCI-H226 lung
[35] = tested on: SF-539 CNS
[36] = tested on: MALME-3M melanoma
[37] = tested on: COLO 205 colon
[38] = tested on: SNB-78 CNS
[39] = tested on: ACHN renal
[40] = tested on: HT29 colon
[41] = tested on: UACC-257 melanoma
[42] = tested on: LOX IMVI melanoma
[43] = tested on: A498 renal
[44] = tested on: KM12 colon
[45] = tested on: OVCAR-3 ovarian
[46] = tested on: NCI-H460 lung
[47] = tested on: SNB-19 CNS
[48] = tested on: MOLT-4 leukemia
[49] = tested on: DLD-1 colon
[50] = tested on: SF-268 CNS
[51] = tested on: RXF 393 renal
[52] = tested on: KM20L2 colon
[53] = tested on: SNB-75 CNS
[54] = tested on: UACC-62 melanoma
[55] = tested on: NCI-H522 lung
[56] = tested on: SK-MEL-2 melanoma

## COC(=O)C1[C@@H](C(=O)OC)C(=O)O[C@H]1c1cc(OC)c(OC)c(OC)c1 (stereo partly specified)
[1]
  TGI: > 100 µM
[2]
  TGI: > 100 µM
[3]
  TGI: > 100 µM
[4]
  TGI: > 100 µM
[5]
  TGI: > 100 µM
[6]
  TGI: > 100 µM
[7]
  TGI: > 100 µM
[8]
  TGI: > 100 µM
[9]
  TGI: > 100 µM
[10]
  TGI: > 100 µM
[11]
  TGI: > 100 µM
[12]
  TGI: > 100 µM
[13]
  TGI: > 100 µM
[14]
  TGI: > 100 µM
[15]
  TGI: > 100 µM
[16]
  TGI: > 100 µM
[17]
  TGI: > 100 µM
[18]
  TGI: > 100 µM
[19]
  TGI: > 100 µM
[20]
  TGI: > 100 µM
[21]
  TGI: > 100 µM
[22]
  TGI: > 100 µM
[23]
  TGI: > 100 µM
[24]
  TGI: > 100 µM
[25]
  TGI: > 100 µM
[26]
  TGI: > 100 µM
[27]
  TGI: > 100 µM
[28]
  TGI: > 100 µM
[29]
  TGI: > 100 µM
[30]
  TGI: > 100 µM
[31]
  TGI: > 100 µM
[32]
  TGI: > 100 µM
[33]
  TGI: > 100 µM
[34]
  TGI: > 100 µM
[35]
  TGI: > 100 µM
[36]
  TGI: > 100 µM
[37]
  TGI: > 100 µM
[38]
  TGI: > 100 µM
[39]
  TGI: > 100 µM
[40]
  TGI: > 100 µM
[41]
  TGI: > 100 µM
[42]
  TGI: > 100 µM
[43]
  TGI: > 100 µM
[44]
  TGI: > 100 µM
[45]
  TGI: > 100 µM
[46]
  TGI: > 100 µM
[47]
  TGI: > 100 µM
[48]
  TGI: > 100 µM
[49]
  TGI: > 100 µM
[50]
  TGI: > 100 µM
[51]
  TGI: > 100 µM
[52]
  TGI: > 100 µM
[53]
  TGI: > 100 µM
[54]
  TGI: > 100 µM

## Nc1nc(N)c2ncn(CCCC(c3ccccc3)P(=O)(O)O)c2n1 (stereo unspecified)
[1]
  TGI: > 100 µM
[2]
  TGI: > 100 µM
[3]
  TGI: > 100 µM
[4]
  TGI: > 100 µM
[5]
  TGI: > 100 µM
[6]
  TGI: > 100 µM
[7]
  TGI: > 100 µM
[8]
  TGI: > 100 µM
[9]
  TGI: > 100 µM
[10]
  TGI: > 100 µM
[11]
  TGI: > 100 µM
[12]
  TGI: > 100 µM
[13]
  TGI: > 100 µM
[14]
  TGI: > 100 µM
[15]
  TGI: > 100 µM
[16]
  TGI: 36 µM
[17]
  TGI: > 100 µM
[19]
  TGI: > 100 µM
[20]
  TGI: > 100 µM
[55]
  TGI: > 100 µM
[21]
  TGI: > 100 µM
[22]
  TGI: > 100 µM
[23]
  TGI: > 100 µM
[24]
  TGI: > 100 µM
[25]
  TGI: > 100 µM
[26]
  TGI: > 100 µM
[27]
  TGI: > 100 µM
[28]
  TGI: > 100 µM
[29]
  TGI: > 100 µM
[30]
  TGI: > 100 µM
[31]
  TGI: > 100 µM
[32]
  TGI: > 100 µM
[33]
  TGI: > 100 µM
[35]
  TGI: > 100 µM
[36]
  TGI: > 100 µM
[37]
  TGI: > 100 µM
[38]
  TGI: > 100 µM
[39]
  TGI: > 100 µM
[40]
  TGI: > 100 µM
[41]
  TGI: > 100 µM
[42]
  TGI: > 100 µM
[43]
  TGI: > 100 µM
[44]
  TGI: > 100 µM
[45]
  TGI: > 100 µM
[46]
  TGI: > 100 µM
[47]
  TGI: > 100 µM
[49]
  TGI: > 100 µM
[56]
  TGI: > 100 µM
[50]
  TGI: > 100 µM
[52]
  TGI: > 100 µM
[53]
  TGI: > 100 µM
[54]
  TGI: > 100 µM

From PubChem BioAssay (NCI)
